One may read the melting point as the temperature of the solid-liquid transition. `O=C(NNC(=O)c1ccccc1O)c1ccccc1O`: the melting point was 303 °C.

As to `c1ccc2c(c1)SCCCN2N=C1CCNCC1`, the melting point is 113 to 115 °C.

The compound `Cc1nnc(-c2ccc3occ(C(=O)NCCC(N)=O)c3c2)o1` showed a melting point of 242 to 243 °C.

In turn, `OCCCc1ccccc1OCc1coc(/C=C/c2ccccc2)n1` had a melting point of 76 to 77 °C.

In turn, `CCOC(=O)C(Cc1cc2ccccc2[nH]c1=O)NC(=O)c1ccc(OC)cc1` (stereo not drawn) came in with a melting point of 206 to 208 °C.

The compound `O=C(O)CC1Cc2cccc3cccc1c23` (stereo not drawn) returned a melting point of 123 °C.

Regarding `CCCCCCCCCCCCCCC(=O)C(=O)N[C@@H](CCCC)C(=O)NCC(=O)OCC`, the melting point was 63 to 65 °C.

`CCNc1nc(C)c(-c2ccnc(Nc3ccc(N4CCOCC4)c(OC)c3)n2)s1` registered a melting point of 224 to 226 °C.

The compound `CCCN(CCC)c1nsc(N)c1C#N` came in with a melting point of 136 to 138 °C.

Consider `O=C(Nc1ccc(-n2nc(C(F)(F)F)cc2C2CC2)nc1)c1c(F)cccc1F`, for which the melting point is 157 to 162 °C.

Consider `Cc1ccc(-c2cccc(C(N)=O)c2)cc1`, for which the melting point lay in the range of 200 to 205 °C.

`CC(C)S(=O)(=O)c1cc(OCc2ccc(S(C)(=O)=O)cn2)c2[nH]nc(Nc3nccs3)c2c1` registered a melting point of 160 to 161 °C.

`Cc1cccc(CC(=O)c2ccnc(-c3ccc(C(=O)NC4CCOCC4)cc3)c2)n1` displayed a melting point of 210 °C.

Consider `CC(C)Cn1cnc2c(N)nc3ccc(-c4ccc(C(C)(C)C)cc4)cc3c21`, for which the melting point was more than 250 °C.

In the case of `CC(C)(C)c1ccc2c(c1)C(C(=O)Nc1c(Cl)cccc1Cl)c1ccccc1CO2` (stereo not drawn), the melting point is 115 to 117 °C.

The compound `CCCCCCCCCCCCCCc1ccc(OCC(CO)OC)cc1` (stereo not drawn) returned a melting point of 43 to 45 °C.

Compound `CCOC(=O)c1cc(=O)c2cccc(Br)c2o1` showed a melting point of 124 to 126 °C.

The compound `Cn1c(=O)c(C#N)c(N2CCN(C(=O)c3cccs3)CC2)c2cc(Cl)ccc21` showed a melting point of 262 °C.

Regarding `CCOCc1nc2c(N)nc3cc(-c4cccc(C(=O)N5CCCC5)c4)ccc3c2n1CC(C)(C)O`, the melting point fell in the range of 216 to 218 °C.

The compound `N#Cc1ccc(N(c2ccc(N)cc2)n2ccnc2)cc1` came in with a melting point of 147 °C.

In the case of `C#CCOC(=O)Oc1ccc2ccc(OC(=O)OCC#C)cc2c1`, the melting point lay within 94 to 96 °C.

`CCOC(=O)C1=NNc2ccc(-c3ccc(Cl)cc3)cc2C1`: the melting point is 254 to 256 °C.

As to `CCCOc1ccccc1C1N=C2N=NC=C2C(=O)N1` (stereo not drawn), the melting point lay in the range of 182 to 184 °C.

As to `CCOC(=O)Cc1ccc(OCc2ccc3c(c2)OCO3)cc1`, the melting point lay in the range of 49 to 52 °C.

`Fc1ccc2[nH]cc(C3=CCN(CC4COc5ccc6c(c5O4)OCCC6)CC3)c2c1` (stereo not drawn) came in with a melting point of 146 to 148 °C.

With `CC#CCOc1cc(Oc2cccc(F)c2)ncn1`, the melting point came out at 60.1 °C.

Consider `COc1ccc(N2CCN(c3c(C)c4c(c(OC)c3C)OC(C)C4)CC2)cc1C` (stereo not drawn), for which the melting point lay within 94 to 96 °C.

Regarding `CC(C)(C)[Si](C)(C)Oc1ccc([N+](=O)[O-])cc1`, the melting point lay in the range of 36 to 38 °C.

Turning to `COc1cc(OC)c(N2CCCC2)cc1/C=C/C(=O)c1ccc(S(N)(=O)=O)cc1`, the melting point fell in the range of 220 to 222 °C.

In turn, `Cc1ccc(-c2nc(CCCCCCSC(C)(C)C(=O)O)c(C)o2)cc1` had a melting point of 111 °C.

Consider `Brc1ccc(C2OCCO2)cc1`, for which the melting point is 56 to 57 °C.

The compound `CCCC(C(=O)O)n1c(=O)c(=O)[nH]c2ccccc21` (stereo not drawn) showed a melting point of 272 to 275 °C.

In turn, `O=C(Nc1ccccc1S(=O)(=O)c1ccccc1)N[C@@H](Cc1ccc(NC(=O)c2ccc(Cl)nc2Cl)cc1)C(=O)O` returned a melting point of 207 °C.

For `N[C@@]1(C(=O)O)C[C@H](NC(=O)Nc2cccc(Cl)c2)[C@H]2[C@H](C(=O)O)[C@H]21` (relative stereo), the melting point was more than 250 °C.

For `CC(C)C1(COC(C)(C)C)Cc2cc(OCC(=O)O)c(Cl)c(Cl)c2C1=O` (stereo not drawn), the melting point lay in the range of 148 to 149 °C.

For the compound `O=C(Nc1nccs1)C(CC1CCCC1)c1ccc(Cl)c([N+](=O)[O-])c1` (stereo not drawn), the melting point was 68 to 72 °C.

`O=C1Nc2ccccc2N(C(=O)CCN2CCCCC2)c2ccc(Cl)cc21` came in with a melting point of 170 to 172 °C.

Take `COc1cc(-c2c(Cl)c(CN3CCCC3=O)nc3sc4c(c23)CCN(Cc2ccccc2)C4)ccc1O`: the melting point lay in the range of 190 to 191 °C.

`Cc1ccc(S(=O)(=O)n2ccc3c(-c4c(C)nc5ccc(Cl)nn45)ccnc32)cc1` displayed a melting point of 138 to 140 °C.

Regarding `O=C1COCC2CCCN12` (stereo not drawn), the melting point was in the range of 63.5 to 66 °C.

Turning to `O=C(O)c1ccc(OCCNC(=O)C2Cc3ccccc3N2S(=O)(=O)c2ccc(-c3ccc(F)cc3F)cc2)cc1` (stereo not drawn), the melting point came out at 92 °C.

On to `Oc1nc2ccc3sccc3c2nc1O`, for which the melting point turned out to be 187 °C.

In turn, `COC(=O)c1cc(I)cn1CCF` returned a melting point of 49 to 50.5 °C.

For `CN1Cc2cscc2N(CCc2ccccc2)c2ccccc21`, the melting point was in the range of 53 to 56 °C.

In turn, `FC(F)(F)c1cc(CN2CCc3cc(OC[C@H]4CO[C@](Cn5ccnc5)(c5ccc(Cl)cc5Cl)O4)ccc3C2)ccc1Cl` (racemic) displayed a melting point of 107 to 108 °C.

For the compound `CCCNc1ccc([N+](=O)[O-])cc1C(=O)c1ccccc1`, the melting point is 150 °C.

`COCCc1nc2c(N)nc3ccccc3c2n1CCCNC(=O)Nc1ccccc1` had a melting point of 40 °C.

For `CCOC(=O)C1=C(C(F)(F)F)Nc2n[nH]c(C)c2C1c1ccccc1Cl` (stereo not drawn), the melting point fell in the range of 165 to 168 °C.

As to `FC1(F)N=c2cc3c(cc2=N1)OC(Br)O3`, the melting point was 160 to 164 °C.

Turning to `O=C(NC(=S)NC1Cc2ccccc2C1)c1ccccc1`, the melting point lay within 130 to 135 °C.

Regarding `O=S(=O)(NC1CCN(S(=O)(=O)c2cccs2)C1)c1ccc(Cl)cc1` (stereo not drawn), the melting point lay within 115 to 116 °C.

`CC(=O)OC[C@H]1[C@H](O)[C@@H](O)[C@@H](O)[C@@H]2NC(=O)c3cc4c(cc3[C@@H]12)OCO4` had a melting point of more than 200 °C.

The compound `Cc1cc(Cl)cc(C(=O)Nc2ccnc(Cl)c2)n1` yielded a melting point of 221 °C.

`Cc1cc2c(cc1C)C1(CO2)C(=O)Nc2ccccc21` (stereo not drawn) registered a melting point of 206 to 207 °C.

As for `O=[N+]([O-])c1cc(-c2ccc(Cl)cc2)[nH]c1SC(F)(F)F`, the melting point was 185 to 193 °C.

On to `O=C(c1ccc(F)cc1)c1cccnc1C(=O)O`, for which the melting point lay within 152 to 153 °C.

Regarding `CN1CCN(c2cc([N+](=O)[O-])ccc2Br)CC1`, the melting point lay in the range of 100 to 103 °C.

Compound `CN(C)C=Nc1ccc(-n2ncnc2-c2ccc(F)cc2)cc1` had a melting point of 90 to 93 °C.

In turn, `Cc1nc2ccc(S(=O)(=O)n3c(COC(C)C(=O)O)cc4cc(C(F)(F)F)ccc43)cc2s1` (stereo not drawn) returned a melting point of 146 to 148 °C.

`CC(=CC(=O)c1cccnc1)NCC(O)COc1ccc(NC(=O)NC2CCCCC2)cc1` (stereo not drawn) had a melting point of 168 °C.

Regarding `Cc1cc(CC=CCc2cc(C)c(O)c(C(C)(C)C)c2)cc(C(C)(C)C)c1O`, the melting point was 99 to 106 °C.

As to `O=C(CSc1ncc(-c2ccccc2)cn1)NC1CCN(Cc2ccc(Cl)c(Cl)c2)CC1`, the melting point worked out at 157 °C.

Consider `CCCNC(=O)C(C)c1nc(CC)no1` (stereo not drawn), for which the melting point fell in the range of 52 to 53 °C.

For the compound `CN(C)C(=O)N=NC(=O)N(C)C`, the melting point is 121 to 122 °C.

In turn, `CS(=O)c1ccc(-c2cnn3c(O)ncnc23)cc1` (stereo not drawn) displayed a melting point of 285 to 286 °C.

`O=C1CC(c2ccccc2)Cc2[nH]ccc(=O)c21` (stereo not drawn) displayed a melting point of 207 to 209 °C.

Turning to `CC(=O)Nc1ccccc1C1OC(=O)NC1=O` (stereo not drawn), the melting point fell in the range of 197 to 198 °C.

Take `CSC(N)=C(C#N)C#N`: the melting point fell in the range of 228 to 229 °C.

`CCOC(=O)C1=NCC(C)(C)c2cc(OC)c3c(c21)CC(C)(C)O3`: the melting point lay in the range of 117 to 121 °C.

Turning to `Cc1ccc(S(=O)(=O)N2CCC[C@H]2C(=O)N2c3ccc(Cl)c(Cl)c3C[C@@H]2C)cc1`, the melting point is 170 to 173 °C.

In the case of `CC(C)c1cc(C(C)C)c(NC(=O)CN2CCN(CCSc3nc4ccccc4o3)CC2)c(C(C)C)c1`, the melting point was in the range of 160 to 163 °C.

Take `CCCCOC(=O)c1cc(Oc2ccc3c(C(=O)Nc4cccc(C(F)(F)F)c4)cccc3c2)ccn1`: the melting point lay within 128 to 130 °C.

In turn, `CC(=O)N1CC(C)(C)c2cc3nc(C(F)(F)F)[nH]c3cc21` returned a melting point of 290 to 291 °C.

Turning to `CCCc1nn(-c2ccc(C(F)(F)F)cn2)cc1CCCOc1ccccc1CC(=O)O`, the melting point fell in the range of 100 to 101 °C.

The compound `NC(=O)C(c1ccc([N+](=O)[O-])cc1)c1ccccn1` (racemic) showed a melting point of 155 to 156 °C.

In the case of `Cc1cc(C)cc(Sc2c(C(C)C)c(=O)[nH]c(=O)n2CC2=CCCC2CO)c1` (stereo not drawn), the melting point is 66 to 68 °C.

On to `CCOC(=O)c1c(Nc2ccccc2[N+](=O)[O-])c(C)cn1C`, for which the melting point stood at 114 °C.

For `C[C@@H]1C[C@@H]2c3cccc4c3N(CCNC4)[C@@H]2C1`, the melting point lay in the range of 155 to 158 °C.

The compound `COCc1cc(Oc2ccc3c(C(=O)OC)cccc3c2)ncn1` returned a melting point of 87 to 88 °C.

As for `O=C(N[C@@H](CCCCNSc1ncccc1[N+](=O)[O-])C(=O)N[C@H](CCC(=O)N1c2ccccc2C[C@H]1C(=O)O)C(=O)O)OCc1ccc2c(c1)OCO2`, the melting point was 100 to 110 °C.

With `OCCc1noc(Cc2ccc(-c3ccccc3)cc2)n1`, the melting point fell in the range of 94 to 95 °C.

The compound `O=C(O)C1CC(Cl)=C(c2ccccc2)CC1C(=O)O` (stereo not drawn) gave a melting point of 82 to 90 °C.

On to `CC(C)OP(=O)(Cc1c(C2CCCCC2)cc(O)cc1C1CCCCC1)OC(C)C`, for which the melting point stood at 143 °C.

On to `COc1ccc(CCNc2nc(O)c(C(=O)c3ccco3)c(O)n2)cc1OC`, for which the melting point is more than 250 °C.

`COc1cc(C2(C)COc3c(OC)cc(C=O)cc32)ccc1O` (stereo not drawn) returned a melting point of 162 to 165 °C.

`Cc1cccc2c1NC(=O)c1cscc1O2`: the melting point lay in the range of 194 to 195 °C.

Take `CC1(C)c2ccc(CCN3CCN(c4noc5ccccc45)CC3)cc2C(C)(C)C1NS(C)(=O)=O` (stereo not drawn): the melting point was 75 to 80 °C.

Turning to `CCCCn1c(=O)c2nn(S(=O)(=O)c3cccc4cccnc34)cc2n(CCCC)c1=O`, the melting point lay within 203 to 205 °C.

These data come from a melting point compilation (Tetko et al.; mined from patent text by program, amines drawn as free bases though some values may be those of a salt).
